The text below walks through data of patent publication US20210393549A1, “New use of R-enantiomer of adrenergic beta 2 receptor agonists for treatment of inflammatory bowel disease and its extra intestinal manifestations” (priority 2018, published 2021).

Data set [1] deals with DSS induced acute colitis. Conditions: for colon histology (H&E), in words: Example 1, compared with untreated DSS mice; for Hist score (histological score): epithelium 0-4 plus infiltration 0-4; for Hist score (histological score) / Col Length (colon length): tenth day; for Hist score (histological score) / FOB (fecal occult blood) / Weight / DAI (disease active index) / Col Length (colon length): 1 mg/kg (R-B, S-B 10 mg/kg; RS-C 2 mg/kg); for Hist score (histological score) / FOB (fecal occult blood) / Weight / Col Length (colon length): mean ± SD; for FOB (fecal occult blood): grade 0, 2, 4; for FOB (fecal occult blood) / Weight / Col Length (colon length): i.g. daily 8 days; for DAI (disease active index): score 0 to 12, i.g. daily 8 days from 2nd day of DSS, n=5. The text has this: In one embodiment, IBD was induced in mice by add DSS into drink water for 7 days. […] (Cooper, S. et al., Clinic pathologic study of dextran sulfate sodium experimental murine colitis, Laboratory Investigation, vol. 69, no. 2, p. 238-249, 1993)
The mice were scarified at day 10th for anatomy and histology evaluations. […] Each of the above histological features was scored individually and added together which is then collectively expressed as “histological score”, for quantitative evaluation (Cooper, S. et al., above).
Male C57BL mice (8-10 weeks, 18-20 g) were grouped into control (drinking water only), DSS and DSS plus treatment groups (n=5). Acute colitis was induced by feeding mice with 2% (w/v) dextran sulfate sodium (DSS) (molecular mass 36-50 kDa) added to the drinking water given ad libitum for 7 days. At the end of seventh day, DSS was removed and animals received only drinking water for 2 days. The animals were euthanized for anatomical and histological examination at the tenth day after DSS ingestion.
R-salbutamol (R-S) (1 mg/kg, S-salbutamol (S-S) (1 mg/kg), R-terbutaline (R-T) (1 mg/kg), S-terbutaline (S-T) (1 mg/kg), R-bambuterol (10 mg/kg), S-bambuterol (S-B) (10 mg/kg), R-clenbuterol (R-C) (1 mg/kg), RS-clenbuterol (RS-C) (2 mg/kg) were administered i.g. daily, starting from the 2nd day of DSS induction for consecutive 8 days. Dexamethasone (Dex), 1 mg/kg) was used as a reference drug.
Evaluation of disease symptoms and histological changes Disease activity index (DAI): Animals were monitored daily for weight, water/food consumption, morbidity, stool consistency and fecal blood. […] The colon length was recorded as an indicator of inflammation. The entire colon was cut open longitudinally and gently flushed with sterile phosphate-buffered saline (PBS) to remove any traces of feces for pathology preparation. Colon segments were fixed in 10% neutral buffered formalin. Tissues were embedded in paraffin, sectioned, mounted on slides. H&E-stained paraffin section images were acquired. Pathological evaluation was conducted in a blinded manner.
Histological Score: the scores were given as follows: epithelium, 0=normal morphology, 1=loss of goblet cells, 2=loss of goblet cells in large areas, 3=loss of crypts, and 4=loss of crypts in large areas; and inflammation cells infiltration, 0=no infiltrate, 1=infiltrate around the crypt basis, 2=infiltrate reaching the muscularis mucosae, 3=extensive infiltration reaching the muscularis mucosae and thickening of the mucosa with abundant edema, and 4=infiltration of the submucosa. Data were presented as mean±the standard deviation (SD).

For data set [2], the system named is DSS induced sub-acute colitis. As to the kind of experiment: Prolonged (two weeks) treatment in DSS induced sub-acute colitis. It counts as in vivo, mice. Conditions: evaluation at 23rd day, salbutamol 1 mg/kg, bambuterol 10 mg/kg. The text has this: Same as example 2, except. 1), Two Weeks Treatment within a Three Weeks of Study
DSS was removed from drinking water at the end of 1st week. The treatments were started at 1st day for consecutive 14 days (2 weeks). Only drinking water given for the 3rd week. The evaluation and examination were made at 23rd day as did in example 1.

For data set [3], the system named is knee joints (articular cartilage, meniscus). Nature of the data set: Damage of knee joints in DSS induced IBD mice. It counts as in vivo. Conditions: compared with untreated DSS mice. The text has this: In one embodiment, in DSS induced IBD mice, there was also a damage of knee joints. The articular cartilage structure became thinner and partially destroyed. The chondrocytes were degenerated, decreased and clustered. The meniscuses were damaged and lost its structural integrity. In X-ray, the layer of articular cartilage was thinner and bone structure was decreased. […] The articular cartilage and bone structure increased toward normal.

For data set [4], the system named is IMQ-induced Psoriasis-Like Skin lesions. As to the kind of experiment: IMQ-induced psoriasis-like skin lesions. It counts as in vivo, mice. The settings on record: dorsal skin, IMQ-induced psoriasis mice. On the procedure: Mice were divided into control, psoriasis and psoriasis plus treatment groups, (n=8 in each group). Psoriasis were induced by topical application of imiquimod cream (62.5 mg) on shaved dorsal skin for seven consecutive days. Vaseline was used in control group. There were four treatment groups: three doses of R-salbutamol (R-Sal) (0.5 mg, 1 mg, 2 mg/kg) and Dexamethasone (1 mg/kg) as positive control. All the treatments and same volume of saline (in control group) were administered orally. In some experiment, R-bambuterol (long-last beta2 agonist) was used as an additional treatment group (n=3). Psoriasis Area Severity Index were used for evaluation. Each of the scores for erythema, scaling and skin thickness were measured separately and then group together as a calculative score. (FIG. 2)

For data set [5], the system named is DSS induced sub-acute colitis. It counts as in vivo. The arrangement: DAI (disease active index) / FOB (fecal occult blood) / Hist score (histological score): scale not given here; Weight / Col Length (colon length): unit not given here. Conditions: for Col Length (colon length) / DAI (disease active index) / FOB (fecal occult blood) / Hist score (histological score) / Weight: one week treatment, evaluation at 23rd day, R-S, S-S 1 mg/kg, R-B, S-B 10 mg/kg; for fecal occult blood, in words: day 14th and 22nd. The text has this:
This invention also disclosed the used of R-salbutamol for treatment of sub acute or chronic phases of IBD. In one embodiment, IBD was induced by DSS as mentioned above, along with the treatment of R-salbutamol, at day 7th, DSS was removed and replaced with drinking water for additional 2 weeks. The disease active index (DAI) of mice was examined and evaluated periodically. The mice were scarified for pathological and histological evaluations at day of 23rd. In DSS induce IBD mice, there were significant loss of weight and fecal occult blood at day 14th and 22nd. The overall condition of colitis was severe although there was slightly improvement comparing the day 7th. The colon-rector length was significant shortened, and histological score were significant higher from control. In mice with DSS induced colitis, there were significant mononuclear leucocytes infiltration, few newly grew crypts with architectural disarray, denegation of epithelia, mucosa aberrant. There was also deep mucosal lymphocytosis, destruction of lamina propria and sometimes, transmural inflammation.
Same as example 1, except • 1), Three weeks' study with one week treatment.
DSS and all the treatment was removed and replaced with drinking water at the end of 1st week. Mice were given drink water and food ad libitum for additional 2 weeks.

The subject of data set [6] is hemorrhoid inflammation symptoms. As to the kind of experiment: Hemorrhoid inflammation symptoms, oral or topical. The settings on record: given either orally or topically. The class given is in vivo. The text has this:
These perianal pathological changes somewhat similar to hemorrhoid inflammation symptoms. […] This new used of beta2 agonists in treatment of hemorrhoid inflammation symptoms has never been disclosed in prior art.

The test system of data set [7] is TNBS-induced colitis. Nature of the data set: TNBS-induced colitis (model for Crohn's disease). The class given is in vivo, Male mice. The text has this: Male mice colitis was induced by rectal co-administration of ethanol and TNBS (Trinitrobenzenesulfonic acid). Severe colitis in mice that was characterized by weight loss and diarrhea. Histologically there were loss of normal structures, visible discrete epithelioid granuloma, multiple erosive lesions, massive transmural inflammation infiltration of lymphocytes, and the loss of goblet cells. […] There was significant alleviation of lesions, few inflammatory infiltration with growing crypts and recovery mucosa epithelia along the column. […] In addition, in TNBS treated colitis mice, there were perianal symptoms: erythema, abscesses and ulcers found in some mice, which may lead to perianal fissures or fistulas. […] The therapeutically effects of R-salbuterol, R-clenbuterol and R-bambuterol on the symptoms in TNBS induced Crohn's disease has never been reported in prior art.

In data set [8] the test system is psoriasis and eczema. As to the kind of experiment: Oral administration in rats, psoriasis and eczema. The class given is in vivo.
Data set [9] deals with acne, maliaria, hives and eczema. As to the kind of experiment: Topical use on acne, maliaria, hives and eczema. The class given is in vivo.
Setting [10] is: sub-acute or chronic DSS colitis, compared with untreated DSS mice.
The mark [11] stands for this setting: acute DSS colitis, compared with untreated DSS mice.

“Also recorded” adds a separate entry of the source. Where two headings read alike, the source gives them in different places.

`CN(C)C(=O)Oc1cc(OC(=O)N(C)C)cc([C@@H](O)CNC(C)(C)C)c1` [R-B, R-bambuterol]: in [1], the “colon histology (H&E), in words” value is “greatly improved”; the “Hist score (histological score)” value stood at 5 ± 0.5; the “FOB (fecal occult blood)” value turned out to be 1 ± 0.5; the Weight was 92 ± 3.3. Moreover, in [1], the “DAI (disease active index)” value was determined as 6 and the “Col Length (colon length)” value is listed as 7.2 ± 0.2^. In addition, in [2], the “DAI, in words” value is given as “return toward normal” and the “histological score, in words” value is recorded as “return toward normal”. Also, in data set [3], the “damage of articular cartilage, meniscus and bone structure of knee joints” value is recorded as “significantly ameliorated”. In addition, the “histology of psoriasis skin lesions (HE)” value in data set [4] was “mostly recovered”. Besides, in data set [5], the “Col Length (colon length)” value is listed as 7.9 ± 0.3, the “DAI (disease active index)” value is given as 6, the “FOB (fecal occult blood)” value was found to be 1.1 ± 0.5 and the “Hist score (histological score)” value is 4 ± 1. The molecule further showed a Weight in [5] of 112 ± 0.6. Moreover, in data set [5] (setting [10]), the “DAI, in words” value is recorded as “significantly improved”; the “histological index / histological score, in words” value is given as “significantly improved; also recorded: significantly ameliorated”; the “fecal occult blood, in words” value is reported as “significantly reduced”. Further, the hemorrhoid inflammation symptoms entry in data set [6] was “significantly alleviated”. Moreover, the “perianal manifestations (erythema, abscesses, ulcers)” value in [7] (TNBS treated mice) is “significantly alleviated”.

Take `CC(C)(C)NC[C@H](O)c1cc(Cl)c(N)c(Cl)c1` [R-C, R-clenbuterol]: in data set [1], the “colon histology (H&E), in words” value was “greatly improved”; the “Hist score (histological score)” value was 4.5 ± 0.5^; the “FOB (fecal occult blood)” value came to 2 ± 0.5; the Weight is 89 ± 2.0. For the same molecule, in [1], the “DAI (disease active index)” value is given as 5 and the “Col Length (colon length)” value was 7 ± 0.7. Moreover, the psoriasis and eczema entry in data set [8] is reported as “significantly ameliorate”. For the same molecule, in data set [9], the “symptoms of acne, maliaria, hives and eczema” value is “significantly alleviated”. Moreover, in data set [5] (setting [10]), the “DAI, in words” value is reported as “significantly improved” and the “histological index / histological score, in words” value was “significantly improved”. For the same molecule, in data set [6], the hemorrhoid inflammation symptoms entry is “significantly alleviated”. Also, the “submucosa fibrosis and narrowing of intestinal lumen” value in data set [7] (TNBS treated mice) is “not seen”. The “weight loss, diarrhea, colon length versus normal control mice” value in data set [7] (oral administration) was “No significant different”. Also, in data set [7] (oral administration (R-enantiomers)), the “disease condition of TNBS colitis, in words” value is “great ameliorated”.

With `CC(C)(C)NC[C@H](O)c1cc(O)cc(O)c1` [R-T, R-terbutaline], in data set [1], the “colon histology (H&E), in words” value was “greatly improved”; the “Hist score (histological score)” value was 6.0 ± 1^; the “FOB (fecal occult blood)” value came to 2 ± 0; the Weight is on record as 88 ± 1.7. For the same molecule, in data set [1], the “DAI (disease active index)” value was found to be 8 and the “Col Length (colon length)” value is on record as 6.6 ± 0.3. Besides, the psoriasis and eczema entry in data set [8] is given as “significantly ameliorate”. Besides, the “symptoms of acne, maliaria, hives and eczema” value in data set [9] is listed as “significantly alleviated”. In [5] (setting [10]), the “DAI, in words” value was “significantly improved” and the “histological index / histological score, in words” value is “significantly improved”.

For `CC(C)(C)NC[C@@H](O)c1ccc(O)c(CO)c1` [S-S, S-salbutamol], in [1], the “colon histology (H&E), in words” value is “no signs of improvements”; the “Hist score (histological score)” value was 7.9 ± 0.5; the “FOB (fecal occult blood)” value was found to be 4.5 ± 0.5; the Weight amounted to 80 ± 2.3. Besides, in data set [1], the “DAI (disease active index)” value was 13 and the “Col Length (colon length)” value is reported as 6.0 ± 0.9. Further, in data set [1] (S-enantiomers in DSS mice), the “toxic effects on the bowel” value is “toxic to the bowel”. In data set [1] (acute DSS colitis), the “effects in prevent and treatment of DSS induced IBD, in words” value is listed as “no amelioration or therapeutic effects at all”. Moreover, in [1] (setting [11]), the “DAI, in words” value is “significantly exacerbated”; the “FOB, in words” value was “significantly worsened”; the “histological score, in words” value is given as “significantly higher than untreated DSS mice”; the “length of colon-rector / shortening of large bowel, in words” value is reported as “further shortened”. Moreover, in [2], the “DAI, in words” value is recorded as “markedly higher than untreated DSS group” and the “histological score, in words” value is given as “markedly higher than untreated DSS group”. Also, in data set [3], the “damage of articular cartilage, meniscus and bone structure of knee joints” value is reported as “exacerbated”. Also, the “histology of psoriasis skin lesions (HE)” value in data set [4] was “worsened the psoriasis histology”. Moreover, in data set [5], the “Col Length (colon length)” value amounted to 6.5 ± 0.9, the “DAI (disease active index)” value is 13, the “FOB (fecal occult blood)” value was found to be 4.5 ± 0.3 and the “Hist score (histological score)” value was 7.7 ± 0.5. Also, in data set [5], the Weight is 95 ± 0.8. Also, the “length of colon-rectors, in words” value in data set [5] (sub-acute DSS colitis, compared with untreated DSS mice) is reported as “shorter”. Moreover, the “body weights, in words” value in data set [5] (sub-acute or chronic DSS colitis) is “lower”. Moreover, in data set [5] (setting [10]), the “DAI, in words” value is given as “much worse”; the “histological index / histological score, in words” value was “markedly higher than untreated DSS mice”; the “fecal occult blood, in words” value is “more severe”.
